Measurements: paper PMC10041525, “New Dual Inhibitors of Bacterial Topoisomerases with Broad-Spectrum Antibacterial Activity and In Vivo Efficacy against Vancomycin-Intermediate Staphylococcus aureus” (Journal of Medicinal Chemistry, 2023)
Read-outs that look alike come from different tables or passages of the source.

Columns and labels:
[1] = system: S. aureus (MRSA) ATCC 43300; assay: MIC broth microdilution (CLSI); assay type: cell-based; conditions: Staphylococcus aureus
Procedure: (§1) MICs (Tables 1 and S1–S3) were determined with a standard serial broth microdilution technique according to Clinical and Laboratory Standards Institute (CLSI) guidelines.[45] Cation-adjusted Mueller Hinton broth 2 (MHBII) was used for bacterial growth under standard laboratory conditions and for antimicrobial susceptibility tests. MHBII broth was prepared by dissolving 22 g of MHBII powder [containing beef extract (3 g), acid hydrolysate of casein (17.5 g), and starch (1.5 g); Becton Dickinson and Co.] in 1 L of water. To prepare MHBII agar, 14 g of agar (Bacto; Molar Chemicals) was added to 1 L of broth.
(§2) Bacterial strains were inoculated onto MHBII agar plates and grown overnight at 37 °C. Next, three individual colonies from each strain were inoculated into 1 mL of MHBII medium and propagated at 37 °C overnight, with agitation at 250 rpm. For Enterococcus sp., the cells were plated in brain–heart infusion [(BHI) medium] agar plates, and BHI broth was used to determine the MICs. […] The highest final DMSO concentration in the experiments was 0.64% (in the case of the 64 μg/mL concentration of the inhibitor). Following the dilutions, each well was seeded with 5 × 10^4 bacterial cells (in 100 μL final volume). Each measurement was performed in three parallel replicates, and to avoid possible edge effects in the microwell plates, the outside rows (A, H) were filled with sterile medium. Following the inoculations, the plates were covered with the lids and wrapped in polyethylene plastic bags, to minimize evaporation but to allow O2 transfer. The plates were incubated at 37 °C under continuous shaking at 150 rpm for 18 h. After incubation, the OD600 of each well was measured using a microplate reader (Synergy 2; Biotek). The MICs were defined as the antibiotic concentrations which inhibited the growth of the bacterial cultures; that is, the drug concentration where the average OD600 increment of the three technical replicates was below 1.5-fold the background OD increment.

[2] = system: S. aureus (VISA) ATCC 700699; assay: MIC broth microdilution (CLSI); assay type: cell-based
Procedure: as §1, §2

[3] = system: E. coli ATCC 25922; assay: MIC broth microdilution (CLSI); assay type: cell-based; conditions: Escherichia coli, ATCC25922
Procedure: as §1, §2

[4] = system: E. faecium ATCC 700221; assay: MIC broth microdilution (CLSI); assay type: cell-based; conditions: Enterococcus faecium, ATCC700221
Procedure: as §1, §2

[5] = system: S. aureus ATCC 29213; assay: MIC broth microdilution (CLSI); assay type: cell-based; conditions: Staphylococcus aureus, ATCC29213
Procedure: as §1, with “Cation-adjusted” for “MICs (Tables 1 and S1–S3) were determined with a standard serial broth microdilution technique according to Clinical and Laboratory Standards Institute (CLSI) guidelines.[45] Cation-adjusted”
(§3) Bacterial strains were inoculated onto MHBII agar plates and grown overnight at 37 °C. Next, three individual colonies from each strain were inoculated into 1 mL of MHBII medium and propagated at 37 °C overnight, with agitation at 250 rpm. For Enterococcus sp., the cells were plated in brain–heart infusion [(BHI) medium] agar plates, and BHI broth was used to determine the MICs. […] Following the dilutions, each well was seeded with 5 × 10^4 bacterial cells (in 100 μL final volume). Each measurement was performed in three parallel replicates, and to avoid possible edge effects in the microwell plates, the outside rows (A, H) were filled with sterile medium. Following the inoculations, the plates were covered with the lids and wrapped in polyethylene plastic bags, to minimize evaporation but to allow O2 transfer. […] After incubation, the OD600 of each well was measured using a microplate reader (Synergy 2; Biotek).

[6] = system: K. pneumoniae ATCC 13883; assay: MIC broth microdilution (CLSI); assay type: cell-based; conditions: Klebsiella pneumoniae, ATCC13883; ATCC 13883 used for 7l, 8b, 14, 16b, 16c
Procedure: as §1, §2
(§4) cMIC, minimum inhibitory concentration
(§5) Bacterial strains that were used: S. aureus ATCC 29213, S. aureus (MRSA) ATCC 43300, S. aureus (VISA) ATCC 700699, E. faecalis ATCC 29212, E. faecium ATCC 700221,
(§6) E. coli ATCC 25922, P. aeruginosa ATCC 27853 (PAO1 for compounds 7l, 8b, 14), A. baumannii ATCC 17978 (ATCC 19606 for compounds 7l, 8b, 14), K. pneumoniae ATCC
(§7) Measurements were performed according to the Clinical and Laboratory Standards Institute guidelines, with three independent measurements.

[7] = system: P. aeruginosa PAO1; assay: MIC broth microdilution (CLSI); assay type: cell-based; conditions: Pseudomonas aeruginosa; PAO1 used for 7l, 8b, 14, 16b, 16c
Procedure: as §1, §2, §4, §5, §6, §7

[8] = system: A. baumannii ATCC 19606; assay: MIC broth microdilution (CLSI); assay type: cell-based; conditions: Acinetobacter baumannii, ATCC19606
Procedure: as §1, §2, §4, §5, §6, §7

[9] = target: T1, topo IV from E. coli (Escherichia coli, UniProt P20083); assay: relaxation HTS plate assay; assay type: biochemical
T1 construct: purchased Inspiralis
Procedure: (§8) All compounds were tested for their inhibitory activities against DNA gyrase and topo IV from E. coli in supercoiling and relaxation high-throughput plate assays, respectively. Our new series of inhibitors were then tested against a panel of Gram-positive and Gram-negative bacteria.
(§9) Seven concentrations of the inhibitors were used to determine IC50 values which were then calculated with GraphPad Prism 6.0 software. Three independent measurements were performed to determine IC50 values, and mean values are reported as the final result.

[10] = system: Enterococcus faecalis ATCC 29212; assay: MIC broth microdilution (CLSI); assay type: cell-based, E. faecalis
Procedure: as §1, §2

[11] = target: T2, DNA gyrase from E. coli (Escherichia coli, UniProt P0AES6); assay: supercoiling HTS plate assay; assay type: biochemical; conditions: IC50 [nM] E. coli DNA gyrase
T2 construct: purchased Inspiralis
Procedure: as §8, §9

[12] = system: A. baumannii ATCC 17978; assay: MIC broth microdilution (CLSI); assay type: cell-based; conditions: Acinetobacter baumannii, ATCC17978
Procedure: as §1, with “Cation-adjusted” for “MICs (Tables 1 and S1–S3) were determined with a standard serial broth microdilution technique according to Clinical and Laboratory Standards Institute (CLSI) guidelines.[45] Cation-adjusted”
as §3

[13] = system: P. aeruginosa ATCC 27853; assay: MIC broth microdilution (CLSI); assay type: cell-based; conditions: Pseudomonas aeruginosa, ATCC27853
Procedure: as §1, §2

[14] = system: K. pneumoniae ATCC 10031; assay: MIC broth microdilution (CLSI); assay type: cell-based; conditions: Klebsiella pneumoniae, ATCC10031
Procedure: as §1, §2

[15] = system: Enterobacter cloacae spp. cloacae ATCC 13047; assay: MIC broth microdilution (CLSI); assay type: cell-based
Procedure: as §1, §2

[16] = in vitro; assay type: in vitro ADME, mouse; conditions: male, CD-1, mouse; for fraction unbound at 4 h, 5 μM: plasma (pooled)
Procedure: The PPB studies were performed by Selvita d.o.o. (Zagreb, Croatia) in mouse plasma (CD-1 male, pooled, commercially obtained from BioIVT) via equilibrium dialysis. Compounds were assayed at 5 μM (0.5% DMSO) in two replicates, and incubation time was 4 h at 37 °C. Samples were taken at 0 min and 4 h. Aliquots from both buffer and plasma compartment matrix were matched and mixed with 6 volumes of STOP solution (acetonitrile/methanol (2:1) + internal standard – diclofenac) and analyzed by LC–MS/MS. Assay controls were caffeine (low), verapamil (moderate binding), and nicardipine (very high binding), and protein contamination was checked.

[17] = mitochondrial toxicity glu/gal assay; assay type: cell-based; conditions: human, 0.1 µM, read-out: cell viability (ATP), % of control
Procedure: HepG2 cells were seeded in two 96-well plates at a density of 50,000 cells per well in 100 μL of growth medium. For the first plate, the growth medium contained glucose and for the second plate, it contained galactose. Cells were incubated overnight in a 5% CO2 atmosphere at 37 °C and allowed to attach onto the wells. […] The medium contained positive control (Rotenone). […] Luminescence was measured with Tecan Infinite 200 pro luminometer, and the values from each well treated with compound were compared to the values given by the negative control (medium only). The inhibition of mitochondrial function was determined by comparing ATP levels in galactose and glucose exposed cells. […]

[18] = read-out: MIC [µg/mL](S. aureus ATCC 29213)
[19] = ATCC 19606 used for 7l, 8b, 14, 16b, 16c, read-out: MIC
[20] = read-out: MIC [µg/mL] (A. baumannii ATCC 19606 for compounds 7l, 8b, 14)

T1 sequence (P0AFI2 whole entry): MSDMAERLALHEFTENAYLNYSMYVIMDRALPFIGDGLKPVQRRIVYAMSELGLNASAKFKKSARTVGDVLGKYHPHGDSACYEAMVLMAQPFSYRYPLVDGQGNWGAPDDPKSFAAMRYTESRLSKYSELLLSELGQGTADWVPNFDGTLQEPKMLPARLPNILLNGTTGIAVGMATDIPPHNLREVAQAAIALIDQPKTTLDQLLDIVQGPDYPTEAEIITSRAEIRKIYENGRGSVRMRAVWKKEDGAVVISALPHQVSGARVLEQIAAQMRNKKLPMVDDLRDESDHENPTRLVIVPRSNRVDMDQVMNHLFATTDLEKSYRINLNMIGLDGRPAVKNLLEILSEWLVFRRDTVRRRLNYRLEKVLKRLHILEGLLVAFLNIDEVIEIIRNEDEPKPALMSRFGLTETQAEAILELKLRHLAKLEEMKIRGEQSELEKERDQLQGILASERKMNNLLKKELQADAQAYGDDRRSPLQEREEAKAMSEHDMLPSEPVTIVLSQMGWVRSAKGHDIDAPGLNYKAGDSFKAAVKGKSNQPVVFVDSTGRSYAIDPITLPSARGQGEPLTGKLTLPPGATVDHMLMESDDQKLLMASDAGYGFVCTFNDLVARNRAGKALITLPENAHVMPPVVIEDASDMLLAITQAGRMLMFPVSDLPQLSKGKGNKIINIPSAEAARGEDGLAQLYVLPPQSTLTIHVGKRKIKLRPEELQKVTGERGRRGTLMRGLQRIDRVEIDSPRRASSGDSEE
T1 sequence (P20083 whole entry): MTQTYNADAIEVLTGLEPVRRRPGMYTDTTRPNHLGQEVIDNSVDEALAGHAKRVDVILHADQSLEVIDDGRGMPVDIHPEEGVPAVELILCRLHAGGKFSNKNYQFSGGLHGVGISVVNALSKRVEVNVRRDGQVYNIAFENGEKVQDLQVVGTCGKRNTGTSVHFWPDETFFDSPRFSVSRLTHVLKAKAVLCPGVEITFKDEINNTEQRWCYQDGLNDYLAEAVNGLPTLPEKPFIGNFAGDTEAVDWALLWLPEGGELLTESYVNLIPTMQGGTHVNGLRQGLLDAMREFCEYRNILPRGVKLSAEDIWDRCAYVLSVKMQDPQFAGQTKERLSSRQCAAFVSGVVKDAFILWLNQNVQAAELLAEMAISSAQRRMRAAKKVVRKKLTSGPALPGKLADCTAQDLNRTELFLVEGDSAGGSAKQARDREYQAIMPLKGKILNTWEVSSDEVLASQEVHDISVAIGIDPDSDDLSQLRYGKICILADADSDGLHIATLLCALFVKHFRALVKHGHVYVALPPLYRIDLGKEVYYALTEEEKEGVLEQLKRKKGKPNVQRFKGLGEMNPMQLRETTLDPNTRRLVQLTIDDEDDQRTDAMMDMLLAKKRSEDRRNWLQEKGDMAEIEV

Row | SMILES | MIC ([3]; read-out: MIC) [µg/mL] | MIC ([5]; read-out: MIC) [µg/mL] | MIC [5, 18] [µg/mL] | MIC [6] [µg/mL] | MIC [7] [µg/mL] | MIC [8, 19] [µg/mL] | MIC [8, 20] [µg/mL] | IC50 ([9]; IC50 [nM] E. coli TopoIV) [nM] | IC50 [11] [nM] | other results
1 | Cc1[nH]c(C(=O)Nc2nc3c(N4CC[C@H](N(C)C)C4)cc(C(=O)O)cc3s2)c(Cl)c1Cl.Cl.N [7l, (S)-2-(3,4-Dichloro-5-methyl-1H-pyrrole-2-carboxamido)-4-(3-(dimethylamino)pyrrolidin-1-yl)benzo[d]thiazole-6-carboxylic Acid] | > 64 | 4 | 4 | > 64 | > 64 | > 64 | > 64 | 210 ± 80 | < 10 | MIC ([1]; read-out: MIC): 2 µg/mL; MIC ([1]; read-out: MIC [µg/mL](S. aureus MRSA ATCC4330)): 2 µg/mL; MIC ([2]; Staphylococcus aureus, read-out: MIC): 0.5 µg/mL; MIC ([4]; read-out: MIC): 0.25 µg/mL; MIC ([10]; Enterococcus faecalis, ATCC29212, read-out: MIC): 1 µg/mL
2 | Cc1[nH]c(C(=O)Nc2nc3c(N4CCNCC4)cc(C(=O)O)cc3s2)c(Cl)c1Cl.Cl [8b, 4-(6-Carboxy-2-(3,4-dichloro-5-methyl-1H-pyrrole-2-carboxamido)benzo[d]thiazol-4-yl)piperazin-1-ium Chloride] | 16 | 32 | 32 | 64 | > 64 | 64 | 64 | 120 ± 15 | < 10 | 
3 | Cc1[nH]c(C(=O)Nc2nc3c(N4CCOCC4)cc(C(=O)O)cc3s2)cc1C#N [16c, 2-(4-Cyano-5-methyl-1H-pyrrole-2-carboxamido)-4-morpholinobenzo[d]thiazole-6-carboxylic Acid] | > 64 | > 64 | > 64 | > 64 | > 64 | > 64 |  |  | 32 ± 9 | MIC ([12]; read-out: MIC [µg/mL] (A. baumannii ATCC 17978)): > 64 µg/mL; IC50 ([9]; read-out: IC50): 440 nM
4 | Cc1[nH]c(C(=O)Nc2nc3c(OCc4ccccc4)cc(C(=O)O)cc3s2)c(Cl)c1Cl [E] |  |  |  |  |  |  |  |  |  | MIC [13]: 2 µg/mL; MIC [1]: 0.0625 µg/mL; MIC [2]: <0.03125 µg/mL; MIC ([2]; Staphylococcus aureus): < 0.0312 µg/mL; MIC [3]: 16 µg/mL; MIC [4]: 0.0625 µg/mL; MIC [14]: 4 µg/mL; MIC [15]: >64 µg/mL; MIC ([15]; Enterobacter cloacae, ATCC13047): > 64 µg/mL; MIC [5]: 0.5 µg/mL; MIC [12]: 2 µg/mL; MIC [10]: <0.03125 µg/mL; MIC ([10]; Enterococcus faecalis, ATCC29212): < 0.0312 µg/mL; fraction unbound at 4 h, 5 μM ([16]; mouse plasma, 5 µM, 4 h, read-out: fu, fraction unbound): < 0.001; fraction unbound at 4 h, 5 μM ([16]; read-out: plasma protein binding (PPB)): < 0.01; recovery at 4 h, 5 μM ([16]; plasma protein binding assay): 94.1%
5 | C=C(C)[C@H]1Cc2c(ccc3c2O[C@@H]2COc4cc(OC)c(OC)cc4[C@@H]2C3=O)O1 [Rot, Rotenone] |  |  |  |  |  |  |  |  |  | viability at 24 h, 0.1 µM ([17]; galactose): 1%; viability at 24 h, 0.1 µM ([17]; glucose): 64%
6 | Cc1[nH]c(C(=O)Nc2nc3c(CN4CCOCC4)cc(C(=O)O)cc3s2)c(Cl)c1Cl.Cl [compound 14, 4-((6-Carboxy-2-(3,4-dichloro-5-methyl-1H-pyrrole-2-carboxamido)benzo[d]thiazol-4-yl)methyl)morpholin-4-ium Chloride] | > 64 | 16 | 16 | 64 | > 64 | > 64 | > 64 | 460 ± 120 | 13 ± 5 | 
